Values joined by “and” are separate entries in the source; they are usually repeats but may differ in a detail not shown here. Equal values may be shown once. Square brackets hold non-standard residues; d marks the D form. Peptide text beside a SMILES is read from it. * marks the point of attachment. Sta = CC(C)C[C@H](N)[C@@H](O)CC(=O)O; Isovaleryl = CC(C)CC(=O)*

Test [1] deals with H-gal-GP. Briefly: Azocasein proteolysis by H-gal-GP at pH 7 with a panel of proteinase inhibitors (neutral endopeptidase-like activity). The test is classed as biochemical, H.contortus. The settings on record: inhibitor 1mM, overnight at 37°C. As to the method:
Proteinase activity was determined using azocasein as substrate in a microassay system. H-gal-GP (approximately 5ug in 20µl) was preincubated for 3Omin at 37°C with 2OOµl sterile 0.1M phosphate buffer, pH 7.0 containing no inhibitor (control), or inhibitor to a final concentration of 1mM. Inhibitors used were prepared as 100mM stock solutions in water except for 4-hydroxymercuribenzoate (4HMB) and pepstatin which were dissolved in methanol. Inhibitors tested were dithiothreitol (DTT); L-cysteine; reduced glutathione; 4HMB; N-ethylmaleimide; EDTA; 1,10 phenanthroline and pepstatin and were all purchased from Sigma. After preincubation 20µl azocasein (5mg/ml in sterile distilled water; Sigma) was added and the reaction mixtures incubated overnight at 37°C. Parallel blanks containing sterile water instead of H-gal-GP were included for each inhibitor tested and assays were performed in duplicate. The reactions were stopped by addition of an equal volume of 1M perchloric acid (BDH chemicals) and retained on ice for 15min to precipitate undigested protein which was subsequently pelleted by brief centrifugation at 11000g using a microfuge. The 0D₄₀₅ of the supernatant was determined using a "Monarch" microcentrifugal analyser (Instrumentation Laboratory, Warrington, UK). After subtraction of the appropriate reagent blank the degree of inhibition was expressed as the percent activity remaining compared to the control reaction.

Test [2] addresses Haemonchus galactose-containing glycoprotein complex (H-gal-GP) (Haemonchus contortus). Description: cell-based or functional assay.
The next test concerns Oo-gal-GP. Briefly: Inhibitor sensitivity of protease activity. The test is classed as biochemical, O.ostertagi. Conditions: means of 2 observations.
Test [3] deals with H-gal-GP. Briefly: Inhibitor sensitivity of protease activity. Conditions: peanut lectin purified H-gal-GP; means of 4 separate observations. It is filed as biochemical, H. contortus. As to the method:
The optimum pH for this activity was determined over the pH range 4 to 9 using overlapping 0.1M acetate, phosphate or Tris buffers (Fig. 8). Optimal activity was found between pH 4.5 and 6.5. ii) Inhibitor sensitivity The inhibitor sensitivity of the proteinase activity was tested with 4 separate preparations of peanut lectin purified H-gal-GP. […]

For another test, the system named is Oc-gal-GP. Briefly: Inhibitor sensitivity of protease activity. The test is classed as biochemical, O.circumcincta. Conditions: means of 2 observations.
Test [4] concerns the target Ostertagia circumcincta galactose containing glycoprotein complex (Oc-gal-GP) (Ostertagia circumcincta). Description: cell-based or functional assay.
For test [5], the target named is Ostertagia ostertagi galactose-containing glycoprotein complex (Oo-gal-GP) (Ostertagia ostertagi). Description: cell-based or functional assay.
The test system of test [6] is extracts of adult T.vitrinus. Description: Proteolytic activity of worm extracts in the presence of pepstatin. It is filed as biochemical. The text has this:
Proteolytic activity in extracts of adult T.vitrinus was reduced by 40% in the presence of pepstatin. […] These observations indicate that T.vitrinus also contains aspartyl proteinase activity similar to Haemonchus and Ostertagia spp.

Where [7] appears, read: first analysis, 0.1M phosphate buffer.
Setting [8] is: second analysis, same batch of H-gal-GP.

Regarding `N[C@@H](CCC(=O)N[C@@H](CS)C(=O)NCC(=O)O)C(=O)O` [Glutathione, reduced glutathione], the “% activity remaining” value worked out at 87% with H-gal-GP [1] (setting [7]) and 85% in the test with H-gal-GP [1] (setting [8]).

As to “Serum of control lamb (injected with adjuvant only) (antibody)”, in test [2], the % Inhibition of Proteolysis (Assay 1) stood at 0% and the % Inhibition of Proteolysis (Assay 2) is 2%.

Turning to `CC(C)C[C@H](NC(=O)[C@H]1O[C@@H]1C(=O)O)C(=O)NCCCCN=C(N)N` [E64], the “percent activity remaining in the presence of inhibitor” value is listed as 101% in the test with Oo-gal-GP, 87.8% in the test on H-gal-GP [3] and 101% in the test on Oc-gal-GP.

On to pepstatin (peptide), for which, in test [2], the % activity remaining (azocasein proteolysis at pH7) is 75% and 85%. Besides, the results for the percent activity remaining in the presence of inhibitor in test [2], in test [4] and in test [5] were 8.5%, 23% and 0%, respectively.

As for `CCN1C(=O)C=CC1=O` [N-ethylmaleimide], the “% activity remaining” value in the test on H-gal-GP [1] (setting [7]) amounted to 74%; in the test with H-gal-GP [1] (setting [8]), 77%.

Take `O=S(=O)(F)Cc1ccccc1` [PMSF]: the “percent activity remaining in the presence of inhibitor” value in the test with Oo-gal-GP amounted to 84%; in the test on H-gal-GP [3], 100%; in the test on Oc-gal-GP it was 104%.

Consider `c1cnc2c(c1)ccc1cccnc12` [1, 10 Phenanthroline, 1,10 phenanthroline], for which the “percent activity remaining in the presence of inhibitor” value came to 99% in the test with Oo-gal-GP, 97% in the test with H-gal-GP [3] and 94% in the test with Oc-gal-GP. Moreover, the “% activity remaining” value in the test on H-gal-GP [1] (setting [7]) came out at 26%; in the test with H-gal-GP [1] (setting [8]) it was 23%.

For the molecule `O=C(O)CN(CCN(CC(=O)O)CC(=O)O)CC(=O)O` [EDTA], the “percent activity remaining in the presence of inhibitor” value in the test on H-gal-GP [3] worked out at 97.8%. For the same molecule, the “% activity remaining” value came out at 25% with H-gal-GP [1] (setting [7]) and 10% in the test with H-gal-GP [1] (setting [8]).

For `CC(C)CC(=O)N[C@H](C(=O)N[C@H](C(=O)N[C@@H](CC(C)C)[C@@H](O)CC(=O)N[C@@H](C)C(=O)N[C@@H](CC(C)C)[C@@H](O)CC(=O)O)C(C)C)C(C)C` [Pepstatin, pepstatin] (Isovaleryl-VV[Sta]A[Sta]-OH), the “percent activity remaining in the presence of inhibitor” value with Oo-gal-GP was 0%; in the test on H-gal-GP [3] it was 8.5%; with Oc-gal-GP, 23%. Besides, in test [6], the Proteolytic activity reduced came to 40%. For the same molecule, the “% activity remaining” value came out at 75% in the test on H-gal-GP [1] (setting [7]) and 85% with H-gal-GP [1] (setting [8]).

On to `O[C@H](CS)[C@H](O)CS` (racemic) [Dithiothreitol, dithiothreitol], for which the “% activity remaining” value in the test on H-gal-GP [1] (setting [7]) is 48%; with H-gal-GP [1] (setting [8]), 44%.

On to `N[C@@H](CS)C(=O)O` [Cysteine, L-cysteine], for which the “% activity remaining” value in the test with H-gal-GP [1] (setting [8]) is listed as 0%.

Consider `O=C([O-])c1cc[c]([Hg][OH])cc1` [4-hydroxymercuribenzoate], for which the “% activity remaining” value is 88% with H-gal-GP [1] (setting [7]) and 91% in the test on H-gal-GP [1] (setting [8]).

Source of the values: EP0652769B1, “VACCINES AGAINST METAZOAN PARASITES” (MALLINCKRODT VETERINARY, INC., priority 1992, dated 1994).
